This is an account of results in ChEMBL document CHEMBL1201862, “PubChem BioAssay data set” (2004).

Test systems include A498; ACHN; DU-145; HCT-116; HCT-15; HOP-92; HT-29; Hs-578T; MDA-MB-231; MDA-N; MOLT-4; NCI-H226; NCI-H23; NCI-H522; OVCAR-3; OVCAR-5; RXF 393; SF-539; SK-OV-3; UACC-257.
What all share (assay): inhibition of tumour cell growth, NCI panel, 48 h

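Test compounds were applied to cells in 96-well plates for 48 hours at 5 doses. GI50 marks 50% less growth.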 The source made the active and inactive calls. Cut-off read from the data, not from the text of the source: active = GI50 up to about 1.1 µM and inactive = higher. Some results are limits rather than exact numbers.

On to `COc1ccc(CN2C(=O)CCC/C=C\[C@H]2CI)cc1`, for which the GI50 with A498 was 12.5 µM (inactive); with ACHN, 14.3 µM (inactive); in the assay on DU-145, 13.3 µM (inactive); with HCT-116, 11.7 µM (inactive); in the assay on HCT-15, 12.4 µM; in the assay on HOP-92 it was 12.8 µM (inactive). Further, the GI50 in the assay on HT-29 was 9.71 µM (inactive); in the assay on Hs-578T, 14.2 µM (inactive); in the assay with MDA-MB-231, 11 µM (inactive); in the assay on MDA-N, 13.1 µM (inactive); in the assay on MOLT-4 it was 10.1 µM (inactive); in the assay on NCI-H226, 12.9 µM (inactive). Besides, the GI50 was 15.1 µM (inactive) in the assay with NCI-H23; 12.7 µM (inactive) in the assay with NCI-H522; 11.6 µM (inactive) in the assay with OVCAR-3; 12.1 µM (inactive) in the assay on OVCAR-5; 3.32 µM (inactive) in the assay with RXF 393; 13.6 µM (inactive) in the assay on SF-539. Moreover, the GI50 in the assay on SK-OV-3 is 16 µM (inactive); in the assay with UACC-257 it was 10.1 µM (inactive).
For the molecule `CC1=C2c3ccccc3N(S(=O)(=O)c3ccccc3)[C@H]2[C@H](C(=O)N2C3CC4CC[C@@]3(CS2(=O)=O)C4(C)C)CC1` (stereo not given in full), the GI50 with A498 was 87.9 µM (inactive); in the assay on ACHN, 34.3 µM (inactive); in the assay with DU-145 it was > 100 µM (inactive); with HCT-116 it was 11.7 µM (inactive); in the assay on HCT-15, 5.36 µM; in the assay with HOP-92, 22.5 µM (inactive). The GI50 is 17.6 µM (inactive) in the assay on HT-29; 0.627 µM (active) in the assay with Hs-578T; > 100 µM (inactive) in the assay with MDA-MB-231; > 10 µM (inactive) with MDA-N; 6.38 µM (inactive) in the assay with MOLT-4; 37.4 µM (inactive) with NCI-H226. Moreover, the GI50 with NCI-H23 is 40.6 µM (inactive); in the assay on NCI-H522, 10.8 µM (inactive); with OVCAR-3 it was 17 µM (inactive); with OVCAR-5, > 100 µM (inactive); with RXF 393 it was 0.222 µM (active); in the assay on SF-539 it was 0.415 µM (active). Moreover, the figures for the GI50 in the assay on SK-OV-3 and in the assay on UACC-257 were 22.1 µM (inactive) and 33.7 µM (inactive), respectively.
For the molecule `COc1ccc(C2c3cc4c(cc3OC(NNS(=O)(=O)c3ccc(C)cc3)C2C)OCO4)cc1` (stereo not given), the GI50 was 78.5 µM (inactive) in the assay with A498; 74 µM (inactive) in the assay on ACHN; > 100 µM (inactive) in the assay on DU-145; 45.9 µM (inactive) in the assay with HCT-116; 70.1 µM in the assay on HCT-15; 21.1 µM (inactive) in the assay with HOP-92. The GI50 in the assay with HT-29 was 93.8 µM (inactive); with Hs-578T, 27.7 µM (inactive); with MDA-MB-231, > 100 µM (inactive); in the assay on MDA-N, 58.3 µM (inactive); with MOLT-4 it was 13.1 µM (inactive); with NCI-H226, > 100 µM (inactive). Moreover, the GI50 in the assay on NCI-H23 was 99.8 µM (inactive); in the assay with NCI-H522, 11.8 µM (inactive); in the assay on OVCAR-3 it was 80.7 µM (inactive); in the assay with OVCAR-5, > 100 µM (inactive); in the assay on RXF 393 it was 38.6 µM (inactive); in the assay on SF-539, > 100 µM (inactive). Besides, the GI50 with SK-OV-3 is > 100 µM (inactive); with UACC-257, 52.6 µM (inactive).
As to `COc1ccc(/N=C2\C(=O)C3=C(OC(C)(C)CC3)c3ccccc32)cc1`, the GI50 with A498 is 7.91 µM (inactive); with ACHN, 0.845 µM (active); with DU-145, 0.871 µM (active); in the assay with HCT-116 it was 0.499 µM (active); with HCT-15, 1.05 µM; in the assay on HOP-92, 2.66 µM (inactive). The GI50 with HT-29 was 0.741 µM (active); in the assay on Hs-578T, 1.63 µM (inactive); with MDA-MB-231 it was 1.41 µM (inactive); in the assay with MDA-N, 0.492 µM (active); with MOLT-4, 2.11 µM (inactive); with NCI-H226, 6.37 µM (inactive). Also, the GI50 was 1.31 µM (inactive) with NCI-H23; 1.04 µM (active) with NCI-H522; 0.361 µM (active) in the assay with OVCAR-3; 2.82 µM (inactive) in the assay with OVCAR-5; 1.09 µM (active) in the assay with RXF 393; 0.005 µM (active) in the assay on SF-539. Also, the results for the GI50 with SK-OV-3 and with UACC-257 were 1.53 µM (inactive) and 0.968 µM (active), respectively.
